# Publication PMC8621101, “Inhibition of XPO-1 Mediated Nuclear Export through the Michael-Acceptor Character of Chalcones” (Pharmaceuticals, 2021)
# Test system: Hap-1 cells
# Assay: Cell proliferation assay (IncuCyte confluence), Hap-1
# Format: cell-based
# Settings: Homo sapiens, HAP1; Hap-1 chronic myeloid leukemia; 72 h; mean of two independent experiments ± SEM; read-out: IC50 antiproliferative activity Hap-1
# Method: (§1) Cancer cell lines HCT-116, NCI-H460, HL-60, K-562 and Z-138 were acquired from the American Type Culture Collection (ATCC, Manassas, VA, USA). The DND-41 cell line was purchased from the Deutsche Sammlung von Mikroorganismen und Zellkulturen (DSMZ Leibniz-Institut, Brunswick, Germany), and the HAP-1 cell line was ordered from Horizon Discovery (Horizon Discovery Group, Water Beach, UK). All cell lines were cultured as recommended by the suppliers. Culture media were purchased from Gibco Life Technologies and supplemented with 10% fetal bovine serum (HyClone, GE Healthcare Life Sciences, Chicago, Illinois, USA).
# (§2) Adherent cell lines HCT-116, NCI-H460 and Hap-1 cells were seeded at a density between 500 and 1500 cells per well in 384-well tissue culture plates (Greiner). After overnight incubation, cells were treated with different concentrations of the test compounds. Suspension cell lines HL-60, K-562, Z-138 and DND-41 were seeded at densities ranging from 2500 to 5500 cells per well in 384-well culture plates containing the test compounds at the same concentration points.
row,SMILES,IC50 [µM]
1,"NC(=O)/C(=C/c1cncnc1)C(=O)c1ccc2ccccc2c1 [Compound 15, (E)-2-Carbamoyl-1-(naphthalene-2-yl)-3-(pyrimidin-5-yl)prop-2-en-1-one]",2.1 ± 0.7
2,"C/C(=C\c1cncnc1)C(=O)c1ccc2ccccc2c1 [Compound 18, (E)-2-Methyl-1-(naphthalen-2-yl)-3-(pyrimidin-5-yl)prop-2-en-1-one]",> 100
3,"O=C(/C=C/c1cccnc1)c1ccc2ccccc2c1 [Compound 24, (E)-1-(Naphthalen-2-yl)-3-(pyridin-3-yl)prop-2-en-1-one]",1.6 ± 0.1
4,"O=C(/C=C/c1ccccn1)c1ccc2ccccc2c1 [Compound 25, (E)-1-(Naphthalen-2-yl)-3-(pyridin-2-yl)prop-2-en-1-one]",3.4 ± 0.5

# Test system: HCT-116 cells
# Assay: Cell proliferation assay (IncuCyte confluence), HCT-116
# Format: cell-based
# Settings: Homo sapiens; HCT-116 colorectal carcinoma; 72 h; mean of two independent experiments ± SEM; read-out: IC50 antiproliferative activity HCT-116
# Method: as §1, §2
row,SMILES,IC50 [µM]
1,"NC(=O)/C(=C/c1cncnc1)C(=O)c1ccc2ccccc2c1 [Compound 15, (E)-2-Carbamoyl-1-(naphthalene-2-yl)-3-(pyrimidin-5-yl)prop-2-en-1-one]",5.3 ± 3.1
2,"C/C(=C\c1cncnc1)C(=O)c1ccc2ccccc2c1 [Compound 18, (E)-2-Methyl-1-(naphthalen-2-yl)-3-(pyrimidin-5-yl)prop-2-en-1-one]",> 100
3,"O=C(/C=C/c1cccnc1)c1ccc2ccccc2c1 [Compound 24, (E)-1-(Naphthalen-2-yl)-3-(pyridin-3-yl)prop-2-en-1-one]",3.1 ± 0.9
4,"O=C(/C=C/c1ccccn1)c1ccc2ccccc2c1 [Compound 25, (E)-1-(Naphthalen-2-yl)-3-(pyridin-2-yl)prop-2-en-1-one]",3.9 ± 1.5

# Test system: NCI-H460 cells
# Assay: Cell proliferation assay (IncuCyte confluence), NCI-H460
# Format: cell-based
# Settings: Homo sapiens; NCI-H460 lung carcinoma; 72 h; mean of two independent experiments ± SEM; read-out: IC50 antiproliferative activity NCI-H460
# Method: as §1, §2
row,SMILES,IC50 [µM]
1,"NC(=O)/C(=C/c1cncnc1)C(=O)c1ccc2ccccc2c1 [Compound 15, (E)-2-Carbamoyl-1-(naphthalene-2-yl)-3-(pyrimidin-5-yl)prop-2-en-1-one]",2.6 ± 0.7
2,"C/C(=C\c1cncnc1)C(=O)c1ccc2ccccc2c1 [Compound 18, (E)-2-Methyl-1-(naphthalen-2-yl)-3-(pyrimidin-5-yl)prop-2-en-1-one]",> 100
3,"O=C(/C=C/c1cccnc1)c1ccc2ccccc2c1 [Compound 24, (E)-1-(Naphthalen-2-yl)-3-(pyridin-3-yl)prop-2-en-1-one]",4.3 ± 2.2
4,"O=C(/C=C/c1ccccn1)c1ccc2ccccc2c1 [Compound 25, (E)-1-(Naphthalen-2-yl)-3-(pyridin-2-yl)prop-2-en-1-one]",51.6 ± 11.7

# Test system: DND-41 cells
# Assay: Cell proliferation assay (IncuCyte confluence), DND-41
# Format: cell-based
# Settings: DND41; DND-41 acute lymphoblastic leukemia; 72 h; mean of two independent experiments ± SEM; read-out: IC50 antiproliferative activity DND-41
# Method: as §1, §2
row,SMILES,IC50 [µM]
1,"NC(=O)/C(=C/c1cncnc1)C(=O)c1ccc2ccccc2c1 [Compound 15, (E)-2-Carbamoyl-1-(naphthalene-2-yl)-3-(pyrimidin-5-yl)prop-2-en-1-one]",8.9 ± 0.9
2,"C/C(=C\c1cncnc1)C(=O)c1ccc2ccccc2c1 [Compound 18, (E)-2-Methyl-1-(naphthalen-2-yl)-3-(pyrimidin-5-yl)prop-2-en-1-one]",39.1 ± 5.3
3,"O=C(/C=C/c1cccnc1)c1ccc2ccccc2c1 [Compound 24, (E)-1-(Naphthalen-2-yl)-3-(pyridin-3-yl)prop-2-en-1-one]",1.8 ± 0.5
4,"O=C(/C=C/c1ccccn1)c1ccc2ccccc2c1 [Compound 25, (E)-1-(Naphthalen-2-yl)-3-(pyridin-2-yl)prop-2-en-1-one]",2.6 ± 0.4

# Test system: HL-60 cells
# Assay: Cell proliferation assay (IncuCyte confluence), HL-60
# Format: cell-based
# Settings: Homo sapiens; HL-60 acute myeloid leukemia; 72 h; mean of two independent experiments ± SEM; read-out: IC50 antiproliferative activity HL-60
# Method: as §1, §2
row,SMILES,IC50 [µM]
1,"NC(=O)/C(=C/c1cncnc1)C(=O)c1ccc2ccccc2c1 [Compound 15, (E)-2-Carbamoyl-1-(naphthalene-2-yl)-3-(pyrimidin-5-yl)prop-2-en-1-one]",5.5 ± 3.6
2,"C/C(=C\c1cncnc1)C(=O)c1ccc2ccccc2c1 [Compound 18, (E)-2-Methyl-1-(naphthalen-2-yl)-3-(pyrimidin-5-yl)prop-2-en-1-one]",≥ 40.9
3,"O=C(/C=C/c1cccnc1)c1ccc2ccccc2c1 [Compound 24, (E)-1-(Naphthalen-2-yl)-3-(pyridin-3-yl)prop-2-en-1-one]",3.5 ± 2.1
4,"O=C(/C=C/c1ccccn1)c1ccc2ccccc2c1 [Compound 25, (E)-1-(Naphthalen-2-yl)-3-(pyridin-2-yl)prop-2-en-1-one]",1.8 ± 0.05

# Test system: K-562 cells
# Assay: Cell proliferation assay (IncuCyte confluence), K-562
# Format: cell-based
# Settings: Homo sapiens, K562; K-562 chronic myeloid leukemia; 72 h; mean of two independent experiments ± SEM; read-out: IC50 antiproliferative activity K-562
# Method: as §1, §2
row,SMILES,IC50 [µM]
1,"NC(=O)/C(=C/c1cncnc1)C(=O)c1ccc2ccccc2c1 [Compound 15, (E)-2-Carbamoyl-1-(naphthalene-2-yl)-3-(pyrimidin-5-yl)prop-2-en-1-one]",2.1 ± 0.1
2,"C/C(=C\c1cncnc1)C(=O)c1ccc2ccccc2c1 [Compound 18, (E)-2-Methyl-1-(naphthalen-2-yl)-3-(pyrimidin-5-yl)prop-2-en-1-one]",48.5 ± 2.4
3,"O=C(/C=C/c1cccnc1)c1ccc2ccccc2c1 [Compound 24, (E)-1-(Naphthalen-2-yl)-3-(pyridin-3-yl)prop-2-en-1-one]",2.2 ± 0.03
4,"O=C(/C=C/c1ccccn1)c1ccc2ccccc2c1 [Compound 25, (E)-1-(Naphthalen-2-yl)-3-(pyridin-2-yl)prop-2-en-1-one]",4.8 ± 2.8

# Test system: Z-138 cells
# Assay: Cell proliferation assay (IncuCyte confluence), Z-138
# Format: cell-based
# Settings: Homo sapiens; Z-138 non-Hodgkin lymphoma; 72 h; mean of two independent experiments ± SEM; read-out: IC50 antiproliferative activity Z-138
# Method: as §1, §2
row,SMILES,IC50 [µM]
1,"NC(=O)/C(=C/c1cncnc1)C(=O)c1ccc2ccccc2c1 [Compound 15, (E)-2-Carbamoyl-1-(naphthalene-2-yl)-3-(pyrimidin-5-yl)prop-2-en-1-one]",5.1 ± 2.7
2,"C/C(=C\c1cncnc1)C(=O)c1ccc2ccccc2c1 [Compound 18, (E)-2-Methyl-1-(naphthalen-2-yl)-3-(pyrimidin-5-yl)prop-2-en-1-one]",> 100
3,"O=C(/C=C/c1cccnc1)c1ccc2ccccc2c1 [Compound 24, (E)-1-(Naphthalen-2-yl)-3-(pyridin-3-yl)prop-2-en-1-one]",1.6 ± 0.1
4,"O=C(/C=C/c1ccccn1)c1ccc2ccccc2c1 [Compound 25, (E)-1-(Naphthalen-2-yl)-3-(pyridin-2-yl)prop-2-en-1-one]",2.3 ± 0.5

# Target: T1, XPO1 (Homo sapiens, UniProt O14980)
# T1 construct: the compounds were assayed in a reporter cell line based on the subcellular localization of a XPO1-dependent GFP reporter cargo protein; endogenous in cells; host or cells: HeLa cells stably transfected with the NLSSV40-AcGFP-NESPKI reporter (only the reporter cargo is transfected, not XPO1)
# T1 sequence (O14980 whole entry): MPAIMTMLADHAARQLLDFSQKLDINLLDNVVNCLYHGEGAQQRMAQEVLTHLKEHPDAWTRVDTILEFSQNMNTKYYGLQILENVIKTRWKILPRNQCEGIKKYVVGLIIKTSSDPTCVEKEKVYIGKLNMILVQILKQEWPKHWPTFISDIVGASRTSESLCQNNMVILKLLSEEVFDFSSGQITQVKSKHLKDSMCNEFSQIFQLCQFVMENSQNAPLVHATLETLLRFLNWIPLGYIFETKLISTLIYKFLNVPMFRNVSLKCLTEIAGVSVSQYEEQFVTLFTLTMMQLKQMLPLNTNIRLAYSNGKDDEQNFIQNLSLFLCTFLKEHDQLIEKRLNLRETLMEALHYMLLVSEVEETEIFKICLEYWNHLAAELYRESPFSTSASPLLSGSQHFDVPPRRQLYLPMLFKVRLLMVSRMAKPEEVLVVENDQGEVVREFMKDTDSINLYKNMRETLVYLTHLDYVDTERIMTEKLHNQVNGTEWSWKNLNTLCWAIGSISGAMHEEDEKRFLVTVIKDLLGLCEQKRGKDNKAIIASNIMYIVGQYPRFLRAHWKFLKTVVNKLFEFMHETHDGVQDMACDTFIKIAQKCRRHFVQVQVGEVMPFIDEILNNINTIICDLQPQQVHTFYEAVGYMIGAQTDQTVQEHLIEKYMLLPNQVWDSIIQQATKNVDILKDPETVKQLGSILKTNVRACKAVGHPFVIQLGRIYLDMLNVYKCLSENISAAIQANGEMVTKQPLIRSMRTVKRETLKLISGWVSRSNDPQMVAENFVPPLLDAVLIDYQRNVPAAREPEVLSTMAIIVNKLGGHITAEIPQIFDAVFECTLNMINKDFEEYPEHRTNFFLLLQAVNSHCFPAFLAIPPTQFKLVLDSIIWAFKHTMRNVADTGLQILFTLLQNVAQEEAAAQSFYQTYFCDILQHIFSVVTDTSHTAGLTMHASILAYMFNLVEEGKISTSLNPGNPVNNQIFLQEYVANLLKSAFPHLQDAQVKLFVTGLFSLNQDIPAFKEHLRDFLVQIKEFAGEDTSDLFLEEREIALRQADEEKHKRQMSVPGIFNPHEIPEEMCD
# Assay: XPO1 phenotypic reporter assay in HeLa NLSSV40-AcGFP-NESPKI cells
# Format: cell-based
# Settings: HeLa GFP reporter cell line
# Method: Stably transfected HeLa NLSSV40-AcGFP-NESPKI were cultured as described in Vercruysse et al.
# To study the XPO1-mediated nuclear export, stably transfected HeLa NLSSV40-AcGFP-NESPKI reporter cells were seeded at 8000 cells per well in 96-well all clear tissue culture plates (TPP). After overnight incubation, cells were treated with different doses of compound or solvent (DMSO) for 2 h and then fixed and counterstained with DAPI. Fluorescence was read on an ArrayScan XTI High Content Reader (Thermo Fisher Scientific, Waltham, MA, USA). Nuclear and cytoplasmic compartments were segmented and their average pixel intensities in the green channel were quantitated employing the HCS Studio software. Genedata Screener software was used for dose-response curve fitting, and calculation of EC50 values was based on the percentage of cells having a predominant nuclear localisation (ratio of nuclear to cytoplasmic signal equal or above 1.4) of the reporter construct. Compounds were tested in two independent experiments and represented as mean ± SEM.
row,SMILES,"XPO1 inhibition, in words"
1,"C/C(=C\c1cncnc1)C(=O)c1ccc2ccccc2c1 [Compound 18, (E)-2-Methyl-1-(naphthalen-2-yl)-3-(pyrimidin-5-yl)prop-2-en-1-one]",inactive against XPO1

# Same assay, conditions: HeLa GFP reporter cell line; 2 h treatment; mean ± SEM of two independent experiments; read-out: XPO1 inhibition IC50
row,SMILES,IC50 [µM]
1,"NC(=O)/C(=C/c1cncnc1)C(=O)c1ccc2ccccc2c1 [Compound 15, (E)-2-Carbamoyl-1-(naphthalene-2-yl)-3-(pyrimidin-5-yl)prop-2-en-1-one]",~10
2,"C/C(=C\c1cncnc1)C(=O)c1ccc2ccccc2c1 [Compound 18, (E)-2-Methyl-1-(naphthalen-2-yl)-3-(pyrimidin-5-yl)prop-2-en-1-one]",> 100
3,"O=C(/C=C/c1cccnc1)c1ccc2ccccc2c1 [Compound 24, (E)-1-(Naphthalen-2-yl)-3-(pyridin-3-yl)prop-2-en-1-one]",1.27 ± 0.29
4,"O=C(/C=C/c1ccccn1)c1ccc2ccccc2c1 [Compound 25, (E)-1-(Naphthalen-2-yl)-3-(pyridin-2-yl)prop-2-en-1-one]",7.28 ± 1.34

# Test system: not listed separately
# Assay: GSH reactivity assay (HPLC, DTNB quench)
# Format: physicochemical
# Settings: 500 µM compound, 5 mM GSH, 37 °C, PBS pH 7.4 with EDTA:DMSO 1:1
# Method: In order to determine if these chalcones could react with thiol groups through a hetero-Michael addition reaction, a few selected compounds (9, 10, 13 and 18) were incubated with glutathione (GSH). After different incubation times, the reactions were quenched by adding 5,5′-dithiobis(2-nitrobenzoic acid) (DTNB, Ellman´s reagent) (1:1 ratio with respect to the initial concentration of GSH). The course of the reaction was followed by HPLC, adapting reported procedures. […] Thus, although this assay is only qualitative, the tendency observed among these chalcones nicely fits the reactivity described for α-X-2´3,4,4´-tetramethylchalcones.
# A 500 µM sample of the tested compound was incubated with 5 mM reduced L-glutathione for 24 h at 37 °C with a final volume of 200 μL. As a solvent system, 20 mM PBS buffer pH 7.4 with 2 mM EDTA:DMSO (1:1) was used. To perform the assay, stock solutions of 20 mM of the chalcones (9, 10, 13 and 18) and 15 mM of reduced L-glutathione were freshly prepared for every experiment and then diluted properly to give the final electrophile:nucleophile ratio (1:10). A 5 mM solution of 5,5′-dithiobis(2-nitrobenzoic acid) (DTNB) was prepared in the same solvent system to quench the reaction. After different time points (10 min, 1 h, 4 h and 24 h), an aliquot of 20 μL of the incubation mixture was quenched by adding 20 μL of the DTNB stock solution, mixed thoroughly, and then analyzed by HPLC. HPLC analysis was performed in Agilent 1120 compact LC, column ACE 5 C18-300 (15 cm × 4.6 mm); UV detection was performed at λ = 254 nm. Solvents used were acetonitrile for bottle A and H2O (containing 0.05% TFA) for bottle B, and the flow rate was 1mL/min. The gradients used were: (A) incubations with chalcone 9: from 10% to 80% of solvent A in 10 min; (B) incubations with chalcones 10 and 18: from 10% to 100% of solvent A in 10 min. The new peaks were analysed by LC-MS. As controls, a 500 μM solution of the α,β-unsaturated compound was also analysed, and a 5 mM reduced L-glutathione solution was quenched by adding DNTB at the same time points. In general, after 6 h of incubation, no GSH was detected.
row,SMILES,"Reaction with GSH (hetero-Michael addition), qualitative"
1,"C/C(=C\c1cncnc1)C(=O)c1ccc2ccccc2c1 [Compound 18, (E)-2-Methyl-1-(naphthalen-2-yl)-3-(pyrimidin-5-yl)prop-2-en-1-one]",remained almost unaltered even after 4 h of incubation

# Test system: panel of cancer cell lines
# Assay: Antiproliferative activity, panel of cancer cell lines
# Format: cell-based
# Settings: panel of cancer cell lines
# Method: as §2
row,SMILES,"Antiproliferative activity, in words"
1,"NC(=O)/C(=C/c1cncnc1)C(=O)c1ccc2ccccc2c1 [Compound 15, (E)-2-Carbamoyl-1-(naphthalene-2-yl)-3-(pyrimidin-5-yl)prop-2-en-1-one]",slightly less active than the parent chalcone 9
2,"C/C(=C\c1cncnc1)C(=O)c1ccc2ccccc2c1 [Compound 18, (E)-2-Methyl-1-(naphthalen-2-yl)-3-(pyrimidin-5-yl)prop-2-en-1-one]",almost inactive
3,"O=C(/C=C/c1cccnc1)c1ccc2ccccc2c1 [Compound 24, (E)-1-(Naphthalen-2-yl)-3-(pyridin-3-yl)prop-2-en-1-one]",low µM range
4,"O=C(/C=C/c1ccccn1)c1ccc2ccccc2c1 [Compound 25, (E)-1-(Naphthalen-2-yl)-3-(pyridin-2-yl)prop-2-en-1-one]",low µM range

# Test system: not given
# Assay: not given
# Settings: not given
row,SMILES,melting point [°C]
1,"O=C(/C=C/c1cccnc1)c1ccc2ccccc2c1 [Compound 24, (E)-1-(Naphthalen-2-yl)-3-(pyridin-3-yl)prop-2-en-1-one]",123 to 125
2,"O=C(/C=C/c1ccccn1)c1ccc2ccccc2c1 [Compound 25, (E)-1-(Naphthalen-2-yl)-3-(pyridin-2-yl)prop-2-en-1-one]",89 to 90
